Results on 15 compounds are retold here after ChEMBL document CHEMBL5291721, “A preclinical secondary pharmacology resource illuminates target-adverse drug reaction associations of marketed drugs” (Nat Commun, 2023).

The target of assay [1] is Sodium-dependent noradrenaline transporter (Homo sapiens, UniProt P23975).
Assay [2] has as its target T1, Amine oxidase [flavin-containing] A (Homo sapiens, UniProt P21397).
T1 sequence (P21397 whole entry): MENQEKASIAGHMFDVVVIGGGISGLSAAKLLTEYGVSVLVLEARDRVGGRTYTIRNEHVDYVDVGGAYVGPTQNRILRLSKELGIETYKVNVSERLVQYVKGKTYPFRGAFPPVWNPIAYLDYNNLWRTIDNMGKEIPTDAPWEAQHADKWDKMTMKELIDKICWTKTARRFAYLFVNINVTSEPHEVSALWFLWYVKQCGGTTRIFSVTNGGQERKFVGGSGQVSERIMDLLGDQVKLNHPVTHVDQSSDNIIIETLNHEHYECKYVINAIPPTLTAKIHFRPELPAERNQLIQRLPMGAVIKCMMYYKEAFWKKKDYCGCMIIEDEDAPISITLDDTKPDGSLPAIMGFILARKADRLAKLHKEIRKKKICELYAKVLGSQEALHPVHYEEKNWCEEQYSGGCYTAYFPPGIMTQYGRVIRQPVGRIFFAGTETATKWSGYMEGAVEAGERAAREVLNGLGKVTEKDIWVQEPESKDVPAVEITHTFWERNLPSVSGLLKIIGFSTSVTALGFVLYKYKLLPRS
The assay is classed as functional.

In assay [3] the target is T2, 5-hydroxytryptamine receptor 2C (Homo sapiens, UniProt P28335).
T2 sequence (P28335 whole entry): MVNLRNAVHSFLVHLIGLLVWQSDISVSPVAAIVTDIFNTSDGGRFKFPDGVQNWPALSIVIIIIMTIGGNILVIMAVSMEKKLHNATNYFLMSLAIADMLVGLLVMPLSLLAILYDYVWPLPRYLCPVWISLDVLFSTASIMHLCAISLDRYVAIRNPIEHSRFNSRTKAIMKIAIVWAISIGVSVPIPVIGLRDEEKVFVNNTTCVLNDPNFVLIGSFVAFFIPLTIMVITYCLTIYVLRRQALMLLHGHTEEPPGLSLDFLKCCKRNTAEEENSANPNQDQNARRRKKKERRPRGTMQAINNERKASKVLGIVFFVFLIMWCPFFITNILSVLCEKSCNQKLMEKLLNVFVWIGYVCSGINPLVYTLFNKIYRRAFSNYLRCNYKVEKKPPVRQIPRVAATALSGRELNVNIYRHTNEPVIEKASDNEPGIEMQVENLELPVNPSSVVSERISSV

The next assay has as its target Vasopressin V2 receptor (Homo sapiens, UniProt P30518).
In the next assay the target is T3, B2 bradykinin receptor (Homo sapiens, UniProt P30411).
T3 sequence (P30411 whole entry): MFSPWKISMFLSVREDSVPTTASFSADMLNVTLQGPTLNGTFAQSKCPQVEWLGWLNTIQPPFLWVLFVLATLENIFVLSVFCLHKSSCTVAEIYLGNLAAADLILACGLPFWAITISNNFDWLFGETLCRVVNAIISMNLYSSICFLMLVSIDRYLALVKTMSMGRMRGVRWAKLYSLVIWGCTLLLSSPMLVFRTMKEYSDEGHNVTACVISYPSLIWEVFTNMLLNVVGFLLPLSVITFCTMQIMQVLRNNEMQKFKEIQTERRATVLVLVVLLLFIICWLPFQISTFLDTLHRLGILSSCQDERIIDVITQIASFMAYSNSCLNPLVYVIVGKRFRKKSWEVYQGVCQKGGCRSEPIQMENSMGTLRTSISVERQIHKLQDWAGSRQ

Assay [4] addresses T4, Neuropeptide Y receptor type 1 (Homo sapiens, UniProt P25929).
T4 sequence (P25929 whole entry): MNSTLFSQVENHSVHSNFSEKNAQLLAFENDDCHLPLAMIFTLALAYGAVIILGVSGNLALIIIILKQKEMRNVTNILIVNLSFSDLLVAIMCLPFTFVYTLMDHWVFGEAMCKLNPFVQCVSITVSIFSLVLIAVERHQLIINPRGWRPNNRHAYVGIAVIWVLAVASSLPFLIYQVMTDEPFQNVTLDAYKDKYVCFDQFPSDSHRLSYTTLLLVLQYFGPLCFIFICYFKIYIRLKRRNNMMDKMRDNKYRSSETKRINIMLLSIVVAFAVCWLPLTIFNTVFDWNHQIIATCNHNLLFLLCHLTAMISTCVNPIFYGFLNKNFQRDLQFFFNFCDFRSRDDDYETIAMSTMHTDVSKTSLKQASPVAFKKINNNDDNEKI
The note with it: read-out: AC50.

Assay [5] has as its target T5, 5-hydroxytryptamine receptor 3A (Homo sapiens, UniProt P46098).
T5 sequence (P46098 whole entry): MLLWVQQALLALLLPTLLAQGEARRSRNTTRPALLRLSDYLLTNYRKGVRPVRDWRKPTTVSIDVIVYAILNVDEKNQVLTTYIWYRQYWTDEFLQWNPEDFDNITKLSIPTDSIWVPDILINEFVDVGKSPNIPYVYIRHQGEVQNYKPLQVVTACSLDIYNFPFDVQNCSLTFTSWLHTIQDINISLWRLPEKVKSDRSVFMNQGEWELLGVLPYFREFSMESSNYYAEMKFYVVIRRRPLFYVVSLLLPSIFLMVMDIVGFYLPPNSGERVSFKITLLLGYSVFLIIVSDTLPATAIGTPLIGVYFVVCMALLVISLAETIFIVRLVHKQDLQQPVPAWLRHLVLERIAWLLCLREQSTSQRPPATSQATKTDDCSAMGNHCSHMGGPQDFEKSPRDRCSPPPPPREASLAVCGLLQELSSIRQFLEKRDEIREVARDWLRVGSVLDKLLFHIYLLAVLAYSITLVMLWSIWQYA
The assay is classed as functional.

In assay [6] the target is T6, Muscarinic acetylcholine receptor M2 (Homo sapiens, UniProt P08172).
T6 sequence (P08172 whole entry): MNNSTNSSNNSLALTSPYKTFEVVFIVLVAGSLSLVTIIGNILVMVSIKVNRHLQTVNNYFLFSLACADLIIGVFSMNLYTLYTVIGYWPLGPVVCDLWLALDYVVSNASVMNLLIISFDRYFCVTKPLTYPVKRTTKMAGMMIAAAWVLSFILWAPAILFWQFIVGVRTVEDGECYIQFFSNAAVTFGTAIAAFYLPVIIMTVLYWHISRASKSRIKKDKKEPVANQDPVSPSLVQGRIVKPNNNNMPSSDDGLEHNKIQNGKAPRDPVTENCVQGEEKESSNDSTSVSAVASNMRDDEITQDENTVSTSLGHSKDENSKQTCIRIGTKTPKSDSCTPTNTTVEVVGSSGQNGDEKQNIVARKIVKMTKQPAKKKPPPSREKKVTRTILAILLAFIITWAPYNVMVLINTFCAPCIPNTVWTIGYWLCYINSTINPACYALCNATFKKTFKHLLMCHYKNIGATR
It counts as functional, cell-based.

Another assay addresses Histamine H2 receptor (Homo sapiens, UniProt P25021). The assay is classed as functional, cell-based.
Also: assay procedure not described here.

Sodium-dependent noradrenaline transporter, sequence (P23975 whole entry): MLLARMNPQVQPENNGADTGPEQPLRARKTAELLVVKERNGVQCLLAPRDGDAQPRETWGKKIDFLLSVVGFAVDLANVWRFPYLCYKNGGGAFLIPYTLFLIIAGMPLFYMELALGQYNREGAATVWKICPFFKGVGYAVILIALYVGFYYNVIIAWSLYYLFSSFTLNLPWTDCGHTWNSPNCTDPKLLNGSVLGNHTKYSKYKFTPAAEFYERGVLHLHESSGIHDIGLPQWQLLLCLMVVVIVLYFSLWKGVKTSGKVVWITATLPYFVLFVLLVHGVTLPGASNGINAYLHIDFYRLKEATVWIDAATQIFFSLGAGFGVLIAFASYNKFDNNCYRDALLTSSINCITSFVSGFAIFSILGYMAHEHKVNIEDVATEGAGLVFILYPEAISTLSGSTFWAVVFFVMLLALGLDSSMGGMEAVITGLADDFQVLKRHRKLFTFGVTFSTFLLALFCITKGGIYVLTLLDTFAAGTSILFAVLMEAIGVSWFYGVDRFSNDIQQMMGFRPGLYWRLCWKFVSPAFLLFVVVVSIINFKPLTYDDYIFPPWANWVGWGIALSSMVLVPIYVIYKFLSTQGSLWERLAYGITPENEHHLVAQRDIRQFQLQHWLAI
Vasopressin V2 receptor, sequence (P30518 whole entry): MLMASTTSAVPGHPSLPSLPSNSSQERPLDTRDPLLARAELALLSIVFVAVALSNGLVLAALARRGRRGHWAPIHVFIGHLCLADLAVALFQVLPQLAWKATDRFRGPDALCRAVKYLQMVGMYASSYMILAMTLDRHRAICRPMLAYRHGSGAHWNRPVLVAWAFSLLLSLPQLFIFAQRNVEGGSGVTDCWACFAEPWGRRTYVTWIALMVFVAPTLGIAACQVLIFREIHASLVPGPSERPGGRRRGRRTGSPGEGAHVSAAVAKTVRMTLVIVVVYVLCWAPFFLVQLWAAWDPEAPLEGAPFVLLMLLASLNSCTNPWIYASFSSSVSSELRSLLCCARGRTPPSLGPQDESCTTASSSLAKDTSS
Histamine H2 receptor, sequence (P25021 whole entry): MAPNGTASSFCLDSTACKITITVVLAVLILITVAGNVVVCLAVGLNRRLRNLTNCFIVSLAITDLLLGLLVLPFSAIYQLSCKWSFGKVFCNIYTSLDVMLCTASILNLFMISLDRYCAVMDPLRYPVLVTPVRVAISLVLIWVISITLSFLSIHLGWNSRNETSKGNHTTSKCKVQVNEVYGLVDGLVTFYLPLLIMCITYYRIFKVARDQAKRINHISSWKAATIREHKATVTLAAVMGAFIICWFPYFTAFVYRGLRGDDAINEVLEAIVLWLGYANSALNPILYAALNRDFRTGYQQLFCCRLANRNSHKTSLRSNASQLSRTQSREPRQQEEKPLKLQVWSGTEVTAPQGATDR

As a reminder, the AC50 is the concentration at which the activity in the assay is half-maximal. With `CCC[C@H](NC(=O)[C@@H]1[C@H]2CCC[C@H]2CN1C(=O)[C@@H](NC(=O)[C@@H](NC(=O)c1cnccn1)C1CCCCC1)C(C)(C)C)C(=O)C(=O)NC1CC1`, the AC50 in assay [1] was > 10 µM; in assay [2] it was > 10 µM; in [3], > 30 µM; on Vasopressin V2 receptor, > 30 µM; at B2 bradykinin receptor it was > 30 µM; in assay [4], > 30 µM. Moreover, the AC50 in [5] was > 30 µM.

For the compound `CC(=O)N[C@@H](CS)C(=O)O` [ACETYLCYSTEINE], the AC50 (in assay [1]; in [6]; in assay [2]; in [3]; on Vasopressin V2 receptor; at B2 bradykinin receptor) was > 30 µM each time. Also, the AC50 (in assay [4]; in [5]; on Histamine H2 receptor) was > 30 µM in each case.

Regarding `C=CCNc1nc(NCC=C)nc(N2CCN(C(c3ccc(F)cc3)c3ccc(F)cc3)CC2)n1` [ALMITRINE], the AC50 (in [1]; in assay [6]; in [2]; in assay [3]; at Vasopressin V2 receptor; on B2 bradykinin receptor) was > 30 µM each time. Also, the AC50 (in assay [4]; in assay [5]; on Histamine H2 receptor) was > 30 µM each time.

Consider `CN1CCC(=C2c3ccccc3CCc3cccnc32)CC1` [AZATADINE], for which the AC50 in assay [1] was > 30 µM; in assay [6] it was > 10 µM; in [2], > 10 µM; in [3], 3.1 µM; on Vasopressin V2 receptor, > 30 µM; at B2 bradykinin receptor, > 30 µM. For the same compound, the AC50 in [4] was > 30 µM; in assay [5] it was > 30 µM; on Histamine H2 receptor it was > 10 µM.

In the case of `CC(C)COCC(CN(Cc1ccccc1)c1ccccc1)N1CCCC1` (stereo not drawn) [BEPRIDIL], the AC50 in assay [1] was 21 µM; in [6], > 30 µM; in assay [2], > 30 µM; in assay [3], > 30 µM; at Vasopressin V2 receptor, > 30 µM; at B2 bradykinin receptor it was > 30 µM. Also, the AC50 (in [4]; in assay [5]; at Histamine H2 receptor) was > 30 µM in each case.

For `CCC(C)C1(CC)C(=O)NC(=O)NC1=O` (stereo not drawn) [BUTABARBITAL], the AC50 (in assay [1]; in [6]; in assay [2]; on Vasopressin V2 receptor; on B2 bradykinin receptor; at Histamine H2 receptor) was > 30 µM in each case.

Regarding `O=C(O)c1cn(C2CC2)c2cc(N3CCNCC3)c(F)cc2c1=O` [CIPROFLOXACIN], the AC50 (at Vasopressin V2 receptor; at B2 bradykinin receptor; in [4]) was > 30 µM each time.

With `CCOC(=O)c1cncn1[C@H](C)c1ccccc1` [ETOMIDATE], the AC50 is > 10 µM in [1]; > 10 µM in [6]; > 10 µM in [2]; > 30 µM in assay [3]; > 10 µM on Vasopressin V2 receptor; > 10 µM at B2 bradykinin receptor. Moreover, the AC50 (in assay [4]; at Histamine H2 receptor) was > 10 µM in each case.

For the compound `Cc1cnc(C(=O)NCCc2ccc(S(=O)(=O)NC(=O)NC3CCCCC3)cc2)cn1` [GLIPIZIDE], the AC50 in [2] is > 10 µM; in [3] it was > 30 µM; on Vasopressin V2 receptor, > 30 µM; at B2 bradykinin receptor, > 30 µM; in [4], > 30 µM; in [5] it was > 10 µM. Also, the AC50 at Histamine H2 receptor was > 10 µM.

For the compound `CN1CCN(C2=Nc3ccccc3Oc3ccc(Cl)cc32)CC1` [LOXAPINE], the AC50 was 1.53 µM in [1]; > 10 µM in [2]; 0.029 µM in assay [3]; > 30 µM at Vasopressin V2 receptor; > 30 µM at B2 bradykinin receptor; > 30 µM in [4]. For the same compound, the AC50 in [5] was 0.38 µM; on Histamine H2 receptor, > 10 µM.

As for `CN(C)CCCNc1c2ccccc2nc2cccc([N+](=O)[O-])c12` [NITRACRINE], the AC50 was > 30 µM in [1]; > 30 µM in assay [6]; 19 µM in assay [2]; 2.7 µM in [3]; > 30 µM on Vasopressin V2 receptor; > 30 µM at B2 bradykinin receptor. Besides, the AC50 in [4] and in [5] was > 30 µM in each case.

With `O=[N+]([O-])c1ccc(O)c2ncccc12` [NITROXOLINE], the AC50 in [6] was > 30 µM; in assay [2] it was > 30 µM; in [3] it was 5.5 µM; in [5] it was 6.6 µM; at Histamine H2 receptor it was > 30 µM.

Turning to `CC[C@@H]([C@H](C)O)n1ncn(-c2ccc(N3CCN(c4ccc(OC[C@@H]5CO[C@@](Cn6cncn6)(c6ccc(F)cc6F)C5)cc4)CC3)cc2)c1=O` [POSACONAZOLE], the AC50 in assay [1] and in assay [2] was > 30 µM each time.

For `CNCc1ccc(-c2[nH]c3cc(F)cc4c3c2CCNC4=O)cc1` [RUCAPARIB], the AC50 in assay [1] is 20.7 µM; in assay [6], > 10 µM; in [2], > 10 µM; on Vasopressin V2 receptor it was > 30 µM; at B2 bradykinin receptor, > 30 µM; in [4], > 30 µM.

Regarding `Cc1cccc(N2CC(CO)OC2=O)c1` (stereo not drawn) [TOLOXATONE], the AC50 (in assay [6]; in [3]; on Vasopressin V2 receptor; at B2 bradykinin receptor; in assay [4]; in assay [5]) was > 30 µM throughout. The AC50 at Histamine H2 receptor is > 30 µM.
